Here are results for one compound from ChEMBL document CHEMBL3639272, “2-morpholino-pyrido[3,2-D]pyrimidines” (2013).

The target of the test is Phosphatidylinositol 4,5-bisphosphate 3-kinase catalytic subunit alpha isoform (Homo sapiens, UniProt P42336). Kind of test: Biological Assays: The efficacy of compounds of the invention in inhibiting the PI3K induced-lipid phosphorylation may be tested in the following binding assay. The assay combines the scintillation proximity assay technology (SPA, Amersham) with the capacity of neomycin (a polycationic antibiotic) to bind phospholipids with high affinity and specificity. The Scintillation Proximity Assay is based on the properties of weakly emitting isotopes (such as 3H, 125I, 33P). Coating SPA beads with neomycin allows the detection of phosphorylated lipid substrates after incubation with recombinant PI3K and radioactive ATP in the same well, by capturing the radioactive phospholipids to the SPA beads through their specific binding to neomycin.
Chain of Phosphatidylinositol 4,5-bisphosphate 3-kinase catalytic subunit alpha isoform (P42336 whole entry, canonical isoform): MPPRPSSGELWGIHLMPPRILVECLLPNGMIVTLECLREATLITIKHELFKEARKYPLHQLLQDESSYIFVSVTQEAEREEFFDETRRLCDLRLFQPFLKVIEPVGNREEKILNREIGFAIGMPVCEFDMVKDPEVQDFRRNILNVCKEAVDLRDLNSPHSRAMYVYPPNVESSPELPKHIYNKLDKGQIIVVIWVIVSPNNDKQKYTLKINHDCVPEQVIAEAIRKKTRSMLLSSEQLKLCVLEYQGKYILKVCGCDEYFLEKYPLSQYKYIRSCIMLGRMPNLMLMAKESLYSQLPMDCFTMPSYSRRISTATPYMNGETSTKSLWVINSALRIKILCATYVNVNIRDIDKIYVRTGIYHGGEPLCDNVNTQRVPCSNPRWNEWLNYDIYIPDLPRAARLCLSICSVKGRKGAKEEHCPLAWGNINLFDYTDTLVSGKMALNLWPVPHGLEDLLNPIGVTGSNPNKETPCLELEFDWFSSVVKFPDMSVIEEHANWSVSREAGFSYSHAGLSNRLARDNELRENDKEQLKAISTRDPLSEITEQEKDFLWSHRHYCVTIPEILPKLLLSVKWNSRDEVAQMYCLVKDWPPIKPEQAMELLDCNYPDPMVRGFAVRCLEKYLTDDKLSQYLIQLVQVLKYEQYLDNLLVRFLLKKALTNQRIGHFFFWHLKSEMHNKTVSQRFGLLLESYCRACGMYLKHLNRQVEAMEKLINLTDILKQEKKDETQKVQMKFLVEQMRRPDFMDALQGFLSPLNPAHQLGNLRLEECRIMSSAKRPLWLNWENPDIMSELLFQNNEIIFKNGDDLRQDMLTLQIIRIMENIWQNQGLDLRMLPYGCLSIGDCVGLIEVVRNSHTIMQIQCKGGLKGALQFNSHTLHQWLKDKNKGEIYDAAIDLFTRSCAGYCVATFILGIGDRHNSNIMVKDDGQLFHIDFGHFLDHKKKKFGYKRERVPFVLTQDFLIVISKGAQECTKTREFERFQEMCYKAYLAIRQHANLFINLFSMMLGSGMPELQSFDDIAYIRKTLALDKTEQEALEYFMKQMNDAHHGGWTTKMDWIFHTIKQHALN

By IC50 is commonly meant the concentration needed to halve the response being measured. As to `O=C(O)c1cc(-c2cccc3ccccc23)c2nc(N3CCOCC3)nc(-c3cccc(O)c3)c2n1`, the IC50 was 0.057 µM.
